These compounds were tested on Plasmodium falciparum (assay: GSK_TCMDC: Inhibition of Plasmodium falciparum 3D7 in whole erythrocytes, using parasite LDH activity as an index of growth.). Details: Plasmodium falciparum, 3D7.
Format: functional, organism-based

| Structure (SMILES) | XC50 |
| --- | --- |
| CC(C)C[C@@H](/C=N/N1CCOC1=O)NC(=O)[C@H](CC(C)C)NC(=O)c1ccc(OCCN2CCOCC2)cc1 | 215 nM |
| COc1ccc2nccc([C@@H](O)CN3CCC(NC(=O)C(c4cc5ccccc5o4)N4CCN(c5ccccc5)CC4)CC3)c2c1 (stereo not given in full) | 238 nM |
| N#Cc1ccc(N2CCN(Cc3ccc(-c4ccc(-c5nc6cc(C(F)(F)F)ccc6[nH]5)cc4)cc3)CC2)nc1 | 963 nM |
| CC(C)CNCc1ccc(-c2cccc(CNc3ccc4ncccc4c3)c2)cc1 | 913 nM |
| Cc1noc(C)c1-c1cccc(CNCc2cccc(-c3cccc(-c4nc5ccccc5[nH]4)c3)c2)c1 | 377 nM |
| Fc1ccc(N(c2nc(-c3cc(F)cc(C(F)(F)F)c3)cs2)C2CCNCC2)cc1 | 956 nM |
| Cc1cccc(CN2CCCN(Cc3ccc(C(=O)Nc4ccc(Cl)cc4)cc3)CC2)c1 | 596 nM |
| COc1cccc(C(=O)NC(c2ccccc2OC)c2cc(Cl)c3cccnc3c2O)c1 (stereo not given) | 1190 nM |
| Cc1nc(C)c(CC(=O)Nc2cccc(-c3cccc(-c4nc5cccc(C)c5[nH]4)c3)c2)s1 | 755 nM |
| O=C(Cn1c(SCc2cccc(F)c2F)cc(=O)c2ccccc21)N(Cc1ccc(-c2ccc(C(F)(F)F)cc2)cc1)C1CCN(CCO)CC1 | 1250 nM |
| CCc1c(CCNCCCCCCNCCc2ccc3c(c2C)OCO3)ccc2c1OCO2 | 608 nM |
| CNC(=O)Cc1ccc(C(=O)Nc2cccc(-c3csc(-c4nc5ccccc5[nH]4)c3)c2)cc1 | 273 nM |
| Cc1ccc(O)cc1Nc1ccnc2cc(-c3ccncc3)ccc12 | 723 nM |
| CCCC(C)NC[C@@H](O)[C@H](Cc1ccccc1)NC(=O)c1cc(NCC)cc(N2CCCCS2(=O)=O)c1 (stereo not given in full) | 163 nM |
| CN(C)CCC=C1c2ccccc2Sc2c(O)cc(Cl)cc21 | 277 nM |
| CCCc1ccc(NC(=O)c2cccc(CN3CCCN(Cc4cccc(O)c4)CC3)c2)cc1 | 748 nM |
| C=CCc1cc(C2CCN(CCCCNC(=O)c3ccc(-c4ccc(C#N)cc4)cc3)CC2)c(OCC(N)=O)c2c1CCCC2 | 799 nM |
| CCc1cc(=O)[nH]c(-n2nc(C)cc2NC(=O)CC(c2ccccc2)c2ccccc2)n1 | 964 nM |
| COc1ccc2ccc(F)c(CC(=O)N3CCOC(CNCc4cccc(-c5ccc(F)cc5)n4)C3)c2n1 (stereo not given) | 1010 nM |
| COc1cc(OC)cc(C(=O)N2CCOC(CCN3CCC(c4ccccc4)CC3)(c3ccc(Cl)c(Cl)c3)C2)c1 (stereo not given) | 442 nM |
| CNC(=O)c1cc(F)c(F)cc1Nc1nc(Nc2cccc(CS(C)(=O)=O)c2)ncc1Cl | 1020 nM |
| O=C(/C=C/c1cccc(C(F)(F)F)c1)NCCCCCN1CCC(c2c[nH]c3ccccc23)CC1 | 836 nM |
| NOCCCCOc1ccc(Cl)cc1 | 785 nM |
| Cc1cc(C)cc(OCC(O)CN(Cc2cc(Cl)cc(Cl)c2)C(=O)Nc2ccc(Cl)cc2)c1 (stereo not given) | 810 nM |

| Structure (SMILES) | XC50 |
| --- | --- |
| CN(C1CCC(NC(=O)/C=C/c2ccccc2)CC1)C1CC2(CCN(C(=O)OC(C)(C)C)CC2)c2ccccc21 (stereo not given) | 822 nM |
| CNc1ccc(CNCc2ccc(-c3ccc(-c4nc5cc(C(F)(F)F)ccc5[nH]4)s3)cc2)cc1 | 177 nM |
| O=C(Nc1ccc(-c2ccccc2)cc1)Nc1cccc(Cn2cnc(N3CCCNCC3)cc2=O)c1 | 1080 nM |
| Cc1ccc(C)c(NC(=O)NCCNc2ccnc(Nc3ccc(F)cc3)n2)c1 | 817 nM |
| COc1ccc(Nc2nccc(-c3ccc4ccnc(NCCCCN)c4c3)n2)cc1 | 750 nM |
| CC(Cc1ccc(OCCN2CCN(c3cccc(Cl)c3)CC2)cc1)NCC(O)c1cccc(C(F)(F)F)c1 (stereo not given) | 602 nM |
| CN1CCN(Cc2ccc(-c3ccc4c(Nc5cc(O)c(F)cc5Cl)ccnc4c3)o2)CC1 | 132 nM |
| CN1CC=C(c2csc3ccc(NC(=O)Nc4ccc(-c5ccncc5)c5ccccc45)cc23)CC1 | 804 nM |
| C/C=C1/CN2CC[C@H]1C[C@H]2[C@H](O)c1ccnc2ccc(OC)cc12 | 199 nM |
| COc1ccc2ncc(F)c([C@H](O)CN3CCC(NCc4ccc5c(c4)OCCO5)CC3)c2c1 | 152 nM |
| CC(C)N1CCC(N(Cc2ccc(-c3ccc(C(F)(F)F)cc3)cc2)C(=O)Cn2c(CCc3cccc(F)c3F)nc(=O)c3cccnc32)CC1 | 642 nM |
| Cc1nc(C)c(-c2ccc(Oc3ccc(Cl)c(Cl)c3)cc2)c(O)c1Br | 304 nM |
| Clc1ccc(C=NN=c2cc[nH]c3ccccc23)cc1 | 723 nM |
| Oc1ccc2ccccc2c1CNCCC1CCCCC1 | 174 nM |
| Fc1ccc2[nH]c(-c3cccc(-c4ccc(CNCCN5CCNCC5)cc4)c3)nc2c1 | 904 nM |
| COc1cc(NCC(O)CNc2cc(Cl)nc3ccccc23)nc2ccccc12 (stereo not given) | 416 nM |
| CCCCCCCCn1c2c(c(=N)c3c1CCC3)CCC2 | 222 nM |
| Cc1cccc2nc(-c3cccc(-c4ccc(NC(=O)Nc5ccc(Cl)c(Cl)c5)cc4)c3)[nH]c12 | 566 nM |
| CC(Cc1ccc(OCCN2CCN(c3cccc(C(F)(F)F)c3)CC2)cc1)NCC(O)c1cccc(C(F)(F)F)c1 (stereo not given) | 181 nM |
| CN(C)CCC1CCN(CCS(=O)(=O)c2cccc(Nc3ncc(-c4cccc(F)c4)cn3)c2)CC1 | 1060 nM |
| COc1cc(C(=O)Nc2cccc(-c3cn4ccc(C)cc4n3)c2)cc(OC)c1OC | 761 nM |
| CC(=O)Nc1ccc(CN(C)C2CCN(c3cc(NC(=O)c4cccc(C)c4)ccn3)CC2)cc1 | 904 nM |
| Cc1ccc(-c2ccn(Cc3cccc(OCc4ccccc4)c3)n2)cn1.Cc1ccc(-c2ccnn2Cc2cccc(OCc3ccccc3)c2)cn1 | 1180 nM |
| CCC(=O)Oc1ccc(NC(=O)c2cccc(OC)c2)cc1 | 771 nM |

| Structure (SMILES) | XC50 |
| --- | --- |
| COc1ccc(Cn2c(N3CCN(S(=O)(=O)c4ccc(OC)cc4)CC3)nc3c2c(=O)n(CC2CC2)c(=O)n3CC2CC2)cc1 | 892 nM |
| N=C(N)NC(=O)Nc1cc(Br)c(Br)c(Br)c1 | 809 nM |
| Cc1cccc2nc(-c3ccc(-c4ccc(CNCc5ccc(S(C)(=O)=O)cc5)cc4)cc3)[nH]c12 | 752 nM |
| Cc1cccn2c(=O)c3cc(C(=O)NC(C)c4ccccc4)c(=N)n(CCc4ccccc4)c3nc12 (stereo not given) | 554 nM |
| FC(F)(F)c1ccc2c(NN=Cc3cccc(Cl)c3)ccnc2c1 | 838 nM |
| N=C1N=C(N)NC2(CCCCC2)N1OCCOc1ccc(Cc2ccccc2)cc1 | 1130 nM |
| COc1ccc(Cc2nc(/N=C(\N)Nc3ccccc3)ccc2OC)cc1 | 852 nM |
| COc1ccc(Nc2ccnc3cc(-c4ccccn4)ccc23)cc1OC | 31.8 nM |
| Cc1cc(C)cc(-n2c(C)cc(/C=C3\SC(=Nc4ccc(Cl)cc4)NC3=O)c2C)c1 | 65.8 nM |
| O=c1ccc2ncc(Cl)c3c2n1CC3CN1CCC(NCc2cc3c(cn2)OCCO3)CC1 (stereo not given) | 961 nM |
| O=C(Nc1ccc(OC2CCN(Cc3ccc(F)cc3)CC2)c(Cl)c1)c1ccccc1 | 794 nM |
| CC(CCc1ccccc1)NCC(O)c1ccc2c3c(cccc13)C(=O)N2C (stereo not given) | 812 nM |
| COc1cc(NC(=O)CCCN2CCN(c3cccc(Cl)c3Cl)CC2)ccc1N1CCN(C(C)C)CC1 | 946 nM |
| CCn1c(-c2nonc2N)nc2cnc(Oc3cccc(NC(=O)c4ccc(OCCCN5CCCCC5)cc4)c3)cc21 | 925 nM |
| CCS(=O)(=O)c1ccc(OC)c(Nc2nccc(-c3c(-c4cccc(NC(=O)c5c(F)cccc5F)c4)nn4ncccc34)n2)c1 | 1030 nM |
| CC(=O)C1(c2ccccc2)CCN(CCC2(c3ccc(Cl)c(Cl)c3)CN(C(=O)Nc3cc(F)cc(F)c3)CCO2)CC1 (stereo not given) | 1480 nM |
| CC(=O)Nc1ncc(C(=O)Nc2cccc(-c3cccc(-c4nc5ccccc5[nH]4)c3)c2)s1 | 814 nM |
| COc1ccc(S(=O)(=O)NCCCC2CCN(CCCCCNC(=O)C=Cc3ccc(Cl)c(Cl)c3)CC2)cc1 | 1040 nM |
| Nc1nc(N)c2c(Oc3cc(Cl)c(Cl)c(Cl)c3)cccc2n1 | 804 nM |
| COc1ccc(C2CCN(CCN3CCC(NC(=O)c4cccc(-c5ccncc5)c4)CC3)CC2)c(OC)c1 | 797 nM |
| N#Cc1ccc2[nH]c(-c3cc(-c4cccc(F)c4)cnc3N)nc2c1 | 193 nM |
| C=CCN1C(=O)c2[nH]nc(-c3cc(C)c(C)cc3O)c2C1c1cccc(Br)c1 (stereo not given) | 1160 nM |
| O=C(CCc1c[nH]cn1)Nc1cccc(-c2ccc(-c3nc4cc(F)ccc4[nH]3)s2)c1 | 557 nM |
| COc1ccc2nc3cc(Cl)ccc3c(Nc3ccc(O)c(CN4CC5CCC(CC5)C4)c3)c2c1 | 172 nM |

| Structure (SMILES) | XC50 |
| --- | --- |
| CCCCN(Cc1cc(Cl)c(OCC)c(OC)c1)c1ccc(C(O)(C(F)(F)F)C(F)(F)F)cc1 | 915 nM |
| Clc1ccc2c(NN=Cc3cccs3)ccnc2c1 | 922 nM |
| c1ccc(CN2CCN(CCNc3c4ccccc4nc4ccccc34)CC2)cc1 | 876 nM |
| O=C(/C=C/c1ccc(Cl)cc1)NCCCCCN1CCCC(C(=O)Nc2ccc(F)c(Cl)c2)C1 (stereo not given) | 1120 nM |
| CCCCC(=O)N(CCOC)Cc1ccc(-c2ccc(CNCCC)cn2)cc1 | 730 nM |
| Cc1ccc(Oc2cnn(C)c(=O)c2Nc2cccc(C(=O)NCCc3ccccn3)c2)c(C)c1 | 494 nM |
| Cc1cc(C)c2ncc(C(=O)O)c(O)c2c1 | 878 nM |
| O=C(NCCCCN1CCC(c2c[nH]c3ccccc23)CC1)c1ccc(-c2ccc(C(F)(F)F)cc2)cc1 | 798 nM |
| O=C(Nc1cccc(CN2CCCN(Cc3ccccc3)CC2)c1)c1ccc(Cl)c(Cl)c1 | 896 nM |
| N#Cc1ccc2[nH]cc(CN3CCC4(CC3)CN(CCNCc3ccccc3)C(=O)O4)c2c1 | 1160 nM |
| Cc1cccc2nc(-c3ccc(-c4cccc(NC(=O)Nc5ccsc5)c4)s3)[nH]c12 | 542 nM |
| Cc1cccc(C)c1OC(=O)C(C)C(O)C1(Sc2ccccc2)CCN(C)CC1 (stereo not given) | 734 nM |
| COc1ccc2nc3cc(Cl)ccc3c(NCCCCCCNc3c4ccc(Cl)cc4nc4ccc(OC)cc34)c2c1 | 661 nM |
| OCCN1CCN(c2ccc(Nc3ccnc4cc5ccccc5cc34)cc2)CC1 | 41 nM |
| C=C[C@H]1CN2CC[C@H]1C[C@@H]2[C@@H](O)c1ccnc2ccc(OC)cc12 [QUINIDINE] | 118 nM |
| O=S(=O)(Nc1ccc(-c2ccc(CN3CCCC3)cc2)cc1)c1cccc2cccnc12 | 1020 nM |
| N#Cc1cccc(CN(Cc2ccc(Cl)c(Cl)c2)S(=O)(=O)c2cccc([N+](=O)[O-])c2)c1 | 808 nM |
| O=C(Nc1ccc(F)cc1)NC1CCN(CCCCCNC(=O)C2CC2c2ccc(Cl)c(Cl)c2)CC1 (stereo not given) | 987 nM |
| O=C(C=Cc1ccc(Cl)c(Cl)c1)NCCCCCN1CCC(CCCNC(=O)C2CC2c2ccccc2)CC1 (stereo not given) | 765 nM |
| CC(O)C1CCCCN1C(=O)c1cccc(-c2cccc(-c3nc4cc(F)ccc4[nH]3)c2)c1 (stereo not given) | 536 nM |
| FC(F)(F)c1cccc(C=NNc2nc3ccccc3[nH]2)c1 | 148 nM |
| N=C(N)NC(=O)Nc1cc(F)c(Cl)c(Cl)c1 | 505 nM |
| COc1ccc2nccc([C@@H](O)CN3CCC(NCc4cc5c(F)ccc(F)c5[nH]4)CC3)c2n1 | 699 nM |
